# Data from patent US4822791A, “Pharmaceutical compositions of-2,2-1,1-[bis-2,2'-(3,1-benzoxazin-4-one)9 ethylenes” (priority 1984, dated 1989).
# Where two headings read alike, the source gives them in different places.
# Key:
# [1] = target: T1, hyaluronidase (Bos taurus, UniProt Q2YDK3); experiment: Anti-hyaluronidase activity (modified Morgan-Elson method); format: biochemical; conditions: hyaluronidase 340NF unit/ml, activating agent Compound 48/80 or CaCl2
# T1 sequence (Q2YDK3 36-553): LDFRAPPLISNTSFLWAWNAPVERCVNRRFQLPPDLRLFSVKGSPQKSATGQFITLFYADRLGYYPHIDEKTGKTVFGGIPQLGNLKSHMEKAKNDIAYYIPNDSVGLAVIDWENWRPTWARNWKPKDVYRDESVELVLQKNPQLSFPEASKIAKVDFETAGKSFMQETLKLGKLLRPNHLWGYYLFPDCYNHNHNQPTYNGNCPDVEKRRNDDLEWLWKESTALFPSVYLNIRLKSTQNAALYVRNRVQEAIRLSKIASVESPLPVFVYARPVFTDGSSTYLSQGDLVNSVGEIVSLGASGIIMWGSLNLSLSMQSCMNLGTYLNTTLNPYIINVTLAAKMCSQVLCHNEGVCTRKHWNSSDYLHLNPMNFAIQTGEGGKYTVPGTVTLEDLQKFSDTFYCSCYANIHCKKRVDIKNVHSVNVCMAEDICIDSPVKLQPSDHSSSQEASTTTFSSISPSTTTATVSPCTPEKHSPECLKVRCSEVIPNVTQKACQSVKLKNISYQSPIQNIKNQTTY
# [2] = system: passive cutaneous anaphylaxis (PCA); experiment: Anti-passive cutaneous anaphylaxis (PCA) activity in rats (Test Example 2); format: in vivo, Wistar strain rats; conditions: Rattus norvegicus, N 10; for inhibition in vivo at 50 mg/kg: 50 mg/kg PO; for inhibition in vivo at 100 mg/kg: 100 mg/kg PO; for inhibition in vivo at 10 mg/kg: 10 mg/kg PO
# Experimental: (§1) Wistar strain rats were sensitized with ovalbumin using aluminium hydroxide gel and Bordetella Pertussis vaccine as adjuvants. Dilutions of antiserum (16-fold and 32-fold) obtained by collecting blood samples 14 days later were administered subcutaneously in the dorsal skin of the rats of the same strain at the rate of 0.1 ml per spot, and the rats were grown for 48 hours. One hour after peroral administration of the sample solution, a mixture of antigen ovalbumin and Evans-blue dye was administered to the tail venous of the animal according to the ordinary procedure. Thirty minutes later, the animals were sacrificed by exsanguination, and the areas of blue spots (long diameter×short diameter) eliciting on the portion of the antiserum injection at the dorsal skin were measured to obtain the rate of inhibition based on the average value shown by the control animals.
# [3] = system: experimental ulcer model (Shay); experiment: Anti-ulcer activity in experimental ulcer model (Shay); format: in vivo, Wistar strain male rats
# Experimental: Using 5 eight-week old Wistar strain male rats of 1 group, the rats were previously fasted for […]. The compound of an amount proportionate to the body weight based on the body weight after fasting was administered intraduodenally or intraperitoneally.
# Each test compound was evenly suspended or dissolved in an aqueous solution of 0.5% CMC ccntaining 0.1% Tween 80, and administered at the rate of 0.5 ml per 100 g of body weight of the animal. To the controls, only the solvent was administered.
# Test was carried out in accordance with Shay's method. After 48 hours' fasting, 5 animals per group were subjected to laparotomy under ether anesthesia, the tract between pylorus of stomach and duodenum was ligated, and the solution of the compound was administered intraduodenally (id) or intraperitoneally (ip), followed by suturing the laparotomy part. Eight hours after administration of the compound liquid, each animal was sacrificed by ether anesthesia and stomach was removed. Then, evaluation on the ulcer condition on the inner surface of stomach, and determination of the amount of gastric juice, of acidity by alkali titration, and of pepsin titer based on substrate of hemoglovin were made on the stored gastric juice. With regard to the acidity, gastric juice amount, and pepsin titer, the results were shown in inhibition rate (%) based on the average value of the control groups.
# [4] = Acute toxicity LD50 in mice (Test Example 8); conditions: mouse, in vivo, one week, Probit method
# Experimental: ddy-Strain mice (male) and Wistar strain rats were used to obtain LD50 values.
# According to the ordinary procedure, suspension or solution of test sample was administered to the animals. From the number of the died animals until one week after the administration, LD50 values were obtained by Probit method.
# [5] = system: passive cutaneous anaphylaxis (PCA); experiment: Anti-passive cutaneous anaphylaxis activity (PCA) in rats (Test Example 9); format: in vivo; conditions: Rattus norvegicus, po, 10 animals
# Experimental: as §1
# This test was conducted in a manner similar to that in Test Example 2, except that the dilutions of antiserum were 12- and 24-folds.
# [6] = Acute toxicity LD50 in ICR mice (Test Example 11); conditions: mouse, in vivo; intravenous; one week; Provit method; read-out: LD50 Value (mg/kg of body weight) Intravenous administration
# Experimental: As test animals, ICR-strain mice (male) were used. According to the conventional procedure, suspension or solution of test sample was administered to the animals. From the number of the died animals until one week after the administration, LD50 values were obtained by Provit method.
# [7] = read-out: Average Inhibition Rate (%) Antiserum Dilution: × 16
# [8] = read-out: Average Inhibition Rate (%) Antiserum Dilution: × 32
# [9] = iv, read-out: LD50 value (mg/kg body weight) Mouse i.v.
# [10] = po, read-out: LD50 value (mg/kg body weight) Mouse p.o.
# [11] = read-out: Inhibition, Anti-serum Dilution: × 12
# [12] = read-out: Inhibition, Anti-serum Dilution: × 24
SMILES,"inhibition in vivo at 100 mg/kg [2, 7]","inhibition in vivo at 100 mg/kg [2, 8]",IC50 ([1]; read-out: IC50),"inhibition in vivo at 50 mg/kg [5, 11]","inhibition in vivo at 50 mg/kg [5, 12]","inhibition in vivo at 10 mg/kg [5, 11]","inhibition in vivo at 10 mg/kg [5, 12]",further results
COc1ccc(C=C(C(=O)Nc2cc([N+](=O)[O-])ccc2C(=O)O)C(=O)Nc2cc([N+](=O)[O-])ccc2C(=O)O)cc1OC [Compound 22],34.6%,40%,–,–,–,–,–,"IC50 ([1]; IC50 (mM)): 0.008 mM; inhibition in vivo at 50 mg/kg [2, 7]: 19.7%; inhibition in vivo at 50 mg/kg [2, 8]: 22.6%; Inhibition % Gastric Acidity ([3]; id 100 mg/kg): 9.1%; Inhibition % secretion amount of gastric juice ([3]; id 100 mg/kg): 11.1%; Inhibition % total pepsin titer ([3]; id 100 mg/kg): 7.2%; Inhibition % Gastric Acidity ([3]; id 200 mg/kg): 13.2%; Inhibition % secretion amount of gastric juice ([3]; id 200 mg/kg): 11.6%; Inhibition % total pepsin titer ([3]; id 200 mg/kg): 10.1%; Inhibition % Gastric Acidity ([3]; id 300 mg/kg): 15.7%; Inhibition % secretion amount of gastric juice ([3]; id 300 mg/kg): 24.9%; Inhibition % total pepsin titer ([3]; id 300 mg/kg): 8.3%; Inhibition % Gastric Acidity ([3]; ip 50 mg/kg): 38.2%; Inhibition % secretion amount of gastric juice ([3]; ip 50 mg/kg): 29.0%; Inhibition % total pepsin titer ([3]; ip 50 mg/kg): 37.2%"
COc1cc(C=C(C(=O)Nc2ccccc2C(=O)O)C(=O)Nc2ccccc2C(=O)O)ccc1O [Compound 24],–,–,0.02 mM,–,–,–,–,"LD50 at 168 h [4, 9]: 275 mg/kg; LD50 at 168 h [4, 10]: > 10000 mg/kg"
"Cc1ccc(C=C(C(=O)Nc2ccccc2C(=O)O)C(=O)Nc2ccccc2C(=O)O)cc1 [Compound 26, 2,2'-[[1,3-dioxo-2-(4-methyl)phenylmethylene-1,3-propanediyl]diimino]bisbenzoic acid]",16.4%,19.1%,0.02 mM,–,–,–,–,"inhibition in vivo at 50 mg/kg [2, 7]: 8.3%; inhibition in vivo at 50 mg/kg [2, 8]: 10%"
CC(=O)Nc1ccc(C=C(C(=O)Nc2ccccc2C(=O)O)C(=O)Nc2ccccc2C(=O)O)cc1 [Compound 29],3.4%,3.9%,0.02 mM,–,–,–,–,Inhibition % Gastric Acidity ([3]; id 100 mg/kg): 0%; Inhibition % secretion amount of gastric juice ([3]; id 100 mg/kg): 0%; Inhibition % total pepsin titer ([3]; id 100 mg/kg): 0%; Inhibition % Gastric Acidity ([3]; id 200 mg/kg): 0.7%; Inhibition % secretion amount of gastric juice ([3]; id 200 mg/kg): 0.5%; Inhibition % total pepsin titer ([3]; id 200 mg/kg): 0%
O=C(Nc1ccccc1C(=O)O)C(=Cc1ccc(Cl)cc1)C(=O)Nc1ccccc1C(=O)O [Compound 30],36.5%,42.5%,0.01 mM,–,–,–,–,"inhibition in vivo at 10 mg/kg [2, 7]: 18.8%; inhibition in vivo at 10 mg/kg [2, 8]: 23.2%; inhibition in vivo at 50 mg/kg [2, 7]: 23.4%; inhibition in vivo at 50 mg/kg [2, 8]: 33.3%; LD50 at 168 h [4, 9]: 258 mg/kg; LD50 at 168 h [4, 10]: 8380 mg/kg"
"CC(C)OC(=O)c1ccccc1NC(=O)C(=Cc1ccccc1)C(=O)Nc1ccccc1C(=O)OC(C)C [Compound 53, diisopropyl 2,2'-[(1,3-dioxo-2-phenylmethylene-1,3-propanediyl)diimino]bisbenzoate]",–,–,–,26.1%,23.9%,–,–,–
"CC(C)(C)OC(=O)c1ccccc1NC(=O)C(=Cc1ccccc1)C(=O)Nc1ccccc1C(=O)OC(C)(C)C [Compound 54, di-tertiary butyl 2,2'-[(1,3-dioxo-2-phenylmethylene-1,3-propanediyl)diimino]bisbenzoate]",–,–,–,38.8%,42.6%,33%,34.3%,LD50 at 168 h [6]: 312 mg/kg
O=C(Nc1ccccc1C(=O)OC1OC(=O)c2ccccc21)C(=Cc1ccccc1)C(=O)Nc1ccccc1C(=O)OC1OC(=O)c2ccccc21 (stereo not drawn) [Compound 56],–,–,–,49.7%,58.4%,44.7%,43.6%,–
"CC(C)(C)C(=O)OCOC(=O)c1ccccc1NC(=O)C(=Cc1ccccc1)C(=O)Nc1ccccc1C(=O)OCOC(=O)C(C)(C)C [Compound 57, di(pivaloyloxymethyl)-2,2'-[(1,3-dioxo-2-phenylmethylene-1,3-propanediyl)diimino]bisbenzoate]",–,–,–,45%,50.1%,37%,30.9%,–
"CCOC(=O)OC(C)OC(=O)c1ccccc1NC(=O)C(=Cc1ccccc1)C(=O)Nc1ccccc1C(=O)OC(C)OC(=O)OCC (stereo not drawn) [Compound 58, di[1-(ethoxycarbonyloxy)ethyl]-2,2'-[(1,3-dioxo-2-phenylmethylene-1,3-propanediyl)diimino]bisbenzoate]",–,–,–,50.8%,57.6%,40.2%,43.1%,–
"Cc1oc(=O)oc1COC(=O)c1ccccc1NC(=O)C(=Cc1ccccc1)C(=O)Nc1ccccc1C(=O)OCc1oc(=O)oc1C [Compound 59, di[(5-methyl-2-oxo-1,3-dioxole-4-yl)methyl]-2,2'-[(1,3-dioxo-2-phenylmethylene-1,3-propanediyl)diimino]bisbenzoate]",–,–,–,65.7%,62%,22%,25.1%,–
